Values after ≈ are worked out from the molar mass of the structure shown. Values joined by “and” are separate entries in the source; they are usually repeats but may differ in a detail not shown here. Equal values may be shown once. Read-outs that look alike come from different tables or passages of the source. *1 amine or outer side, *2 acyl side, *3 side chain or, on linkers, in order; H or OH if unused. Where a SMILES comes first, the peptide text is derived from it. [ ]: non-standard residue; d: D form. dAla(ψthiazole) = C[C@@H](N[*:1])c1nc(C(=O)[*:2])cs1; Trp(4-Br) = N[C@@H](Cc1c[nH]c2cccc(Br)c12)C(=O)O; Dhb = C/C=C(\N)C(=O)O; Sar = CNCC(=O)O
What was measured:
[1] = system: Clostridium difficile ATCC 43255; assay: CLSI MIC, representative gut bacteria; format: cell-based
Description: (§1) Comparative in vitro bacterial susceptibility to compounds 3, 9 and 10, vancomycin and metronidazole was determined using methods according to the Clinical and Laboratory Standard Institute (CLSI) approved guidelines (M7-A10, M11-A7 or M45-A2) for anaerobic and aerobic organisms.

[2] = system: Clostridium sordellii ATCC 9714; assay: CLSI MIC, representative gut bacteria; format: cell-based
Description: as §1

[3] = system: 23 representatives of normal gut flora; assay: CLSI MIC, whole panel of representative gut bacteria; format: cell-based; details: at 64 μg/mL
Clostridium scindens = assay: Growth of Clostridium scindens (separate study); format: cell-based; details: at 80.0 μg/mL
From the text: It is known that the presence of Clostridium scindens in the gut can help to keep Clostridium difficile at bay. […] This would not be the case if a broad-spectrum antibiotic, such as vancomycin or metronidazole, was to be used. The lack of activity against Clostridium scindens would, therefore, further help the gut to recover from Clostridium difficile infection.

[4] = mice
Description: In this study, a single oral dose of compound 3 in 0.5% w/v aqueous methylcellulose at 5 mg/kg was administered to nine mice in a 10 mL/kg dosing volume and housed in metabolism cages. Following administration of the compound, serial blood samples of 50 μL was taken from the lateral tail vein at each of 7 post-dosing time-points (0.25, 0.5, 1, 2, 4, 7 and 24 h). Whole blood samples were then diluted 1:1 with water and two 40 μL aliquots were pipetted into duplicate 96 well plate tubes. At the end of 24 h, all faecal samples were collected and pooled. A quantitative bioanalysis by LC-MS/MS of the blood and faecal levels of compound 3 was carried out to determine the oral absorbability and gastrointestinal metabolic stability of compound 3.
To evaluate the metabolic stability of orally administered compound 3, metabolite profiling of the faecal sample was performed.

[5] = system: C. difficile BI1 (BI/NAP1, ribotype 027); assay: Hamster model of C. difficile-associated disease; format: in vivo, Golden Syrian hamsters
[6] = system: Clostridium perfringens NCTC 8237
[7] = system: Bacteroides fragilis ATCC 25285; details: Bacteroides fragilis, ATCC25285
[8] = system: Clostridium innocuum DSM 1286
[9] = system: Propionibacterium acnes ATCC 6919
[10] = system: Bifidobacterium bifidum ATCC 11863
[11] = system: Bifidobacterium breve ATCC 15700
[12] = system: Actinomyces viscosus DSM 43327
[13] = system: Corynebacterium jeikeium NCTC 11914
[14] = system: Corynebacterium urealyticum NCTC 12011
[15] = system: Corynebacterium striatium NCTC 764
[16] = system: Lactobacillus rhamnosus ATCC 53103
[17] = system: Enterococcus faecalis ATCC 29212
[18] = system: Staphylococcus aureus ATCC 29213
[19] = system: Pseudomonas aeruginosa ATCC 27853
[20] = system: Pseudomonas aeruginosa NCTC 13437
[21] = system: Escherichia coli ATCC 25922
[22] = system: Enterobacter cloacae NCTC 13406
[23] = system: Proteus mirabilis DSM 30116
[24] = system: Clostridium difficile strains (21 clinical, 7 reference)

C/C=C1\NC(=O)[C@@H](C)NC(=O)CNC(=O)[C@H](Cc2c[nH]c3cccc(Br)c23)NC(=O)[C@H](Cc2c[nH]c3ccccc23)NC(=O)c2csc(n2)[C@@H](C)NC(=O)CN(C)C1=O [Compound 10, Cyclo[D-Ala-Thz-Trp-Trp(4-Br)-Gly-D-Ala-Dhb-Sar]] (cyclo([Dhb][Sar][dAla(ψthiazole)]W[Trp(4-Br)]G[dA]))
fold more potent against C. difficile ATCC 43255 compared to Bacteroides fragilis [1]: at least 256 fold
MIC ([1]; Clostridium difficile ATCC 43255): 0.25 µg/mL (≈ 0.282 µM)
MIC [2]: 1.0 µg/mL (≈ 1.13 µM)
share of the 23 representatives of normal gut flora that are insensitive [3]: Approximately 90%
growth of Clostridium scindens (Clostridium scindens): unaffected
compound recovered from pooled faeces ([4]; oral 5 mg/kg, 24 h): up to 90%
faecal concentration, times above the MIC against C. difficile ([4]; single 5 mg/kg oral dose): more than 200
hamsters that succumbed to the disease within 36 hours post-infection ([5]; 0.2 mg/kg): 100%
Mean survival ([5]; 0.2 mg/kg oral twice daily for 5 days): 35.75 h
animals reaching the end of the study at day-21 post-infection ([5]; 1.0 mg/kg and 2.5 mg/kg twice daily): 10%
Mean survival ([5]; 1.0 mg/kg oral twice daily for 5 days): 155 h and 154.63 h
average survival ([5]; 1.0 mg/kg twice daily): 6.5 days
increase in survival time compared to vehicle control ([5]; 1.0 mg/kg twice daily): 4.7 fold
Mean survival ([5]; 2.5 mg/kg oral twice daily for 5 days): 206 h and 205.92 h
average survival ([5]; 2.5 mg/kg twice daily): 8.5 days
increase in survival time compared to vehicle control ([5]; 2.5 mg/kg twice daily): 6.3 fold
survival at day 6 post-infection ([5]; 2.5 mg/kg twice daily): 100%
survival time compared to the vehicle control ([5]; 0.2, 1.0 and 2.5 mg/kg, non-optimised doses): significant dose dependent increase in survival time
activity against P. aeruginosa in comparison to the Dha containing compound 3 (P. aeruginosa PAO1; PAO1): three-fold increase in activity
IC50 (P. aeruginosa PAO1; PAO1, 13 h): 3700 ± 1000 nM
% Growth inhibition at 100 μM (P. aeruginosa PAO1; PAO1, 13 h, 100): 90.6 ± 1.3%
times more potent than Argyrin A (P. aeruginosa PAO1; against P. aeruginosa): 4 to 5
IC50 (B. multivorans ATCC17616; ATCC17616, 25 h): 840 ± 100 nM
times more potent than Argyrin A (B. multivorans ATCC17616; against B. multivorans): 4 to 5
MIC [6]: 64 µg/mL (≈ 72.1 µM)
MIC [7]: > 64 µg/mL
MIC [8]: >64 µg/mL
MIC [9]: >64 µg/mL
MIC [10]: >64 µg/mL
MIC [11]: >64 µg/mL
MIC [12]: 8 µg/mL (≈ 9.01 µM)
MIC [13]: >64 µg/mL
MIC [14]: >64 µg/mL
MIC [15]: >64 µg/mL
MIC [16]: >64 µg/mL
MIC [17]: >64 µg/mL
MIC [18]: >64 µg/mL
MIC [19]: >64 µg/mL
MIC [20]: >64 µg/mL
MIC [21]: >64 µg/mL
MIC [22]: >64 µg/mL
MIC [23]: >64 µg/mL
MIC40 ([24]; 28 C. difficile strains): 0.25 µg/mL (≈ 0.282 µM)
MIC50 ([24]; 28 C. difficile strains): 0.50 µg/mL (≈ 0.563 µM)
MIC90 ([24]; 28 C. difficile strains): 0.50 µg/mL (≈ 0.563 µM)
MIC ([24]; C. difficile strain 630 (ribotype 012)): 0.25 µg/mL (≈ 0.282 µM)
MIC ([24]; C. difficile strain ATCC 9689 (ribotype 001)): 0.5 µg/mL (≈ 0.563 µM)
MIC ([24]; C. difficile strain ATCC 13366): 1 µg/mL (≈ 1.13 µM)
MIC ([24]; C. difficile strain ATCC 43255): 0.25 µg/mL (≈ 0.282 µM)
MIC ([24]; C. difficile strain ATCC 700057 (ribotype 038)): 0.25 µg/mL (≈ 0.282 µM)
MIC ([24]; C. difficile strain ATCC BAA 1875 (ribotype 078)): 0.5 µg/mL (≈ 0.563 µM)
MIC ([24]; C. difficile strain BI1-FDX^R): 0.25 µg/mL (≈ 0.282 µM)
MIC ([24]; C. difficile strain Clin. 1): 0.25 µg/mL (≈ 0.282 µM)
MIC ([24]; C. difficile strain Clin. 2): 0.5 µg/mL (≈ 0.563 µM)
MIC ([24]; C. difficile strain Clin. 3): 0.25 µg/mL (≈ 0.282 µM)
MIC ([24]; C. difficile strain Clin. 5): 0.5 µg/mL (≈ 0.563 µM)
MIC ([24]; C. difficile strain Clin. 6): 0.5 µg/mL (≈ 0.563 µM)
MIC ([24]; C. difficile strain Clin. 7): 0.25 µg/mL (≈ 0.282 µM)
MIC ([24]; C. difficile strain Clin. 8): 0.5 µg/mL (≈ 0.563 µM)
MIC ([24]; C. difficile strain Clin. 9): 0.5 µg/mL (≈ 0.563 µM)
MIC ([24]; C. difficile strain Clin. 10): 0.25 µg/mL (≈ 0.282 µM)
MIC ([24]; C. difficile strain Clin. 11): 0.5 µg/mL (≈ 0.563 µM)
MIC ([24]; C. difficile strain Clin. 12): 0.25 µg/mL (≈ 0.282 µM)
MIC ([24]; C. difficile strain Clin. 13): 0.5 µg/mL (≈ 0.563 µM)
MIC ([24]; C. difficile strain Clin. 14): 0.5 µg/mL (≈ 0.563 µM)
MIC ([24]; C. difficile strain Clin. 15): 0.5 µg/mL (≈ 0.563 µM)
MIC ([24]; C. difficile strain Clin. 16): 0.25 µg/mL (≈ 0.282 µM)
MIC ([24]; C. difficile strain Clin. 18): 0.5 µg/mL (≈ 0.563 µM)
MIC ([24]; C. difficile strain Clin. 20): 0.25 µg/mL (≈ 0.282 µM)
MIC ([24]; C. difficile strain Clin. 21): 0.5 µg/mL (≈ 0.563 µM)
MIC ([24]; C. difficile strain Clin. 22): 0.5 µg/mL (≈ 0.563 µM)
MIC ([24]; C. difficile strain Clin. 23): 0.5 µg/mL (≈ 0.563 µM)
MIC ([24]; C. difficile strain Clin. 24): 0.25 µg/mL (≈ 0.282 µM)
share of the C. difficile strains tested that are susceptible ([24]; at 0.25 μg/mL): 43%
MIC against C. difficile ([24]; range over strains): 0.25 to 0.50 µg/mL

— US11192888B2, “Antibacterial compounds” (priority 2017, dated 2021)
